Experimental data taken from ChEMBL document CHEMBL4811255, “Antibacterial and Antifungal Polyketides from the Fungus Aspergillus unguis PSU-MF16” (J Nat Prod, 2021).
In brackets after ≈: the same amount, converted by molar mass. Activity calls are given as the source filed them. The rule behind the calls is not given here.

What was measured:
Staphylococcus aureus [1] = test: Antibacterial activity against Staphylococcus aureus ATCC 25923 assessed as bacterial growth inhibition incubated for 18 hrs by CLSI protocol based agar microdilution method; format: functional
Staphylococcus aureus [2] = test: Antibacterial activity against methicillin-resistant Staphylococcus aureus assessed as bacterial growth inhibition incubated for 18 hrs by CLSI protocol based agar microdilution method; format: functional
Candida albicans [3] = test: Antifungal activity against Candida albicans NCPF 90028 assessed as fungal growth inhibition incubated for 24 to 48 hrs by CLSI protocol based agar microdilution method; format: functional; settings: time 24-48 hrs
Cryptococcus neoformans [4] = test: Antifungal activity against Cryptococcus neoformans ATCC 90113 assessed as fungal growth inhibition incubated for 24 to 48 hrs by CLSI protocol based agar microdilution method; format: functional; settings: time 24-48 hrs
Nannizzia gypsea [5] = test: Antifungal activity against Microsporum gypseum assessed as fungal growth inhibition incubated for 4 days by CLSI protocol based agar microdilution method; format: functional; settings: 96 h, time 4 day
Vero [6] = test: Cytotoxicity against African green monkey Vero cells by colorimetric assay; format: cell-based; settings: Chlorocebus sabaeus
Staphylococcus aureus [7] = test: Antibacterial activity against Staphylococcus aureus ATCC 25923 assessed as bacterial growth inhibition by CLSI protocol based assay; format: functional
Staphylococcus aureus [8] = test: Antibacterial activity against methicillin-resistant Staphylococcus aureus assessed as bacterial growth inhibition by CLSI protocol based assay; format: functional
Candida albicans [9] = test: Antifungal activity against Candida albicans NCPF 90028 assessed as fungal growth inhibition by CLSI protocol based assay; format: functional
Cryptococcus neoformans [10] = test: Antifungal activity against Cryptococcus neoformans ATCC 90113 assessed as fungal growth inhibition by CLSI protocol based assay; format: functional
Vero [11] = test: Cytotoxicity against African green monkey Vero cells incubated for 24 hrs by MTT assay; format: cell-based; settings: Chlorocebus sabaeus
Candida albicans [12] = test: Antifungal activity against Candida albicans NCPF 90028 assessed as fungal growth inhibition at 50 ug/ml by CLSI protocol based assay; format: functional, organism-based; settings: dose 50.0 µg/ml
Staphylococcus aureus [13] = test: Antibacterial activity against Staphylococcus aureus ATCC 25923 assessed as bacterial growth inhibition at 50 ug/ml by CLSI protocol based assay; format: functional, organism-based; settings: dose 50.0 µg/ml
Staphylococcus aureus [14] = test: Antibacterial activity against methicillin-resistant Staphylococcus aureus assessed as bacterial growth inhibition at 50 ug/ml by CLSI protocol based assay; format: functional, organism-based; settings: dose 50.0 µg/ml
Nannizzia gypsea [15] = test: Antifungal activity against Microsporum gypseum assessed as fungal growth inhibition at 50 ug/ml by CLSI protocol based assay; format: functional, organism-based; settings: dose 50.0 µg/ml
Vero [16] = test: Cytotoxicity against African green monkey Vero cells at 50 ug/ml incubated for 24 hrs by MTT assay; format: cell-based; settings: chlorocebus sabaeus, dose 50 µg/ml
Nannizzia gypsea [17] = test: Antifungal activity against Microsporum gypseum assessed as fungal growth inhibition by CLSI protocol based assay; format: functional

| SMILES | MIC (Staphylococcus aureus [1]) [µg/mL] | MIC (Staphylococcus aureus [2]) [µg/mL] | MIC (Candida albicans [3]) [µg/mL] | MIC (Cryptococcus neoformans [4]) [µg/mL] | MIC (Nannizzia gypsea [5]) [µg/mL] | IC50 (Vero [6]) [µg/mL] | MIC (Staphylococcus aureus [7]) [µg/mL] | MIC (Staphylococcus aureus [8]) [µg/mL] | MIC (Candida albicans [9]) [µg/mL] | MIC (Cryptococcus neoformans [10]) [µg/mL] | IC50 (Vero [11]) [µg/mL] | Activity (Candida albicans [12]) | Activity (Staphylococcus aureus [13]) | Activity (Staphylococcus aureus [14]) | Activity (Nannizzia gypsea [15]) | Activity (Vero [16]) | MIC (Nannizzia gypsea [17]) [µg/mL] |
| --- | --- | --- | --- | --- | --- | --- | --- | --- | --- | --- | --- | --- | --- | --- | --- | --- | --- |
| C/C=C(\C)c1c(Cl)c(O)c(C)c2c1Oc1cc(O)c(Cl)c(C)c1C(=O)O2 | 0.25 (≈ 0.633 µM) | 0.5 (≈ 1.27 µM) | 0.25 (≈ 0.633 µM) | 0.25 (≈ 0.633 µM) | 1 (≈ 2.53 µM) | 4.6 (≈ 11.6 µM) | 2 (≈ 5.06 µM) | 1 (≈ 2.53 µM) | 200 (≈ 506 µM) | 128 (≈ 324 µM) | 8.9 (≈ 22.5 µM) | – | – | – | – | – | – |
| Clc1ccccc1C(c1ccccc1)(c1ccccc1)n1ccnc1 [CLOTRIMAZOLE] | – | – | – | – | 2 (≈ 5.8 µM) | – | – | – | – | – | – | – | – | – | – | – | – |
| C/C=C(\C)c1cc(O)c(C)c2c1C(=O)Oc1c(C)c(O)c(Cl)c(/C(C)=C/C)c1O2 | 0.25 (≈ 0.603 µM) | 0.5 (≈ 1.21 µM) | 0.25 (≈ 0.603 µM) | 0.25 (≈ 0.603 µM) | 1 (≈ 2.41 µM) | 4.6 (≈ 11.1 µM) | 0.5 (≈ 1.21 µM) | 0.5 (≈ 1.21 µM) | – | 0.5 (≈ 1.21 µM) | 16 (≈ 38.6 µM) | inactive | – | – | – | – | – |
| C/C=C(\C)c1c2c(c(C)c(O)c1C(=O)O)OC(=O)c1c(C)cc(O)cc1O2 | 0.25 (≈ 0.675 µM) | 0.5 (≈ 1.35 µM) | 0.25 (≈ 0.675 µM) | 0.25 (≈ 0.675 µM) | 1 (≈ 2.7 µM) | 4.6 (≈ 12.4 µM) | – | – | – | 200 (≈ 540 µM) | – | inactive | inactive | inactive | inactive | Non-Toxic | – |
| C=C(c1cc(O)c(C)c2c1Oc1cc(O)cc(C)c1C(=O)O2)[C@H](C)O | – | – | – | 0.5 (≈ 1.46 µM) | 0.5 (≈ 1.46 µM) | – | – | – | – | – | – | – | – | – | – | – | – |
| C/C=C(\C)c1c(Cl)c(OC)c(C)c2c1Oc1c(Cl)c(O)c(Cl)c(C)c1C(=O)O2 | 0.25 (≈ 0.563 µM) | 0.5 (≈ 1.13 µM) | 0.25 (≈ 0.563 µM) | 0.25 (≈ 0.563 µM) | 1 (≈ 2.25 µM) | 4.6 (≈ 10.4 µM) | 4 (≈ 9.01 µM) | 8 (≈ 18 µM) | – | 16 (≈ 36.1 µM) | 57 (≈ 128 µM) | inactive | – | – | inactive | – | – |
| C/C=C(\C)c1cc(O)c(C)c2c1Oc1c(C)c(O)cc(/C(C)=C/C)c1C(=O)O2 | 0.25 (≈ 0.657 µM) | 0.5 (≈ 1.31 µM) | 0.25 (≈ 0.657 µM) | 0.25 (≈ 0.657 µM) | 1 (≈ 2.63 µM) | – | 2 (≈ 5.26 µM) | 1 (≈ 2.63 µM) | – | 1 (≈ 2.63 µM) | 17 (≈ 44.7 µM) | inactive | – | – | – | – | – |
| C[C@@H]1[C@H](O)[C@@H](C)/C=C/C=C/C=C/C=C/C=C/C=C/C=C/[C@H](O[C@@H]2O[C@H](C)[C@@H](O)[C@H](N)[C@@H]2O)C[C@@H]2O[C@](O)(C[C@@H](O)C[C@@H](O)[C@H](O)CC[C@@H](O)C[C@@H](O)CC(=O)O[C@H]1C)C[C@H](O)[C@H]2C(=O)O [AMPHOTERICIN B] | – | – | 0.5 (≈ 0.541 µM) | 2 (≈ 2.16 µM) | – | – | – | – | – | – | – | – | – | – | – | – | – |
| C/C=C(\C)c1c(Cl)c(O)c(C)c2c1Oc1c(Cl)c(O)c(Cl)c(C)c1C(=O)O2 | 0.25 (≈ 0.582 µM) | 0.5 (≈ 1.16 µM) | 0.25 (≈ 0.582 µM) | 0.25 (≈ 0.582 µM) | 1 (≈ 2.33 µM) | 4.6 (≈ 10.7 µM) | 2 (≈ 4.65 µM) | 2 (≈ 4.65 µM) | – | 8 (≈ 18.6 µM) | 110 (≈ 256 µM) | inactive | – | – | inactive | – | – |
| Cc1c2ccncc2c(C)c2c1[nH]c1ccccc12 [ELLIPTECINE] | – | – | – | – | – | 4 (≈ 16.2 µM) | – | – | – | – | – | – | – | – | – | – | – |
| C/C=C(\C)c1cc(O)c(C)c(O)c1C(=O)Oc1cc2c(c(O)c1C)C(=O)O[C@@]2(C)CC | 0.25 (≈ 0.586 µM) | 0.5 (≈ 1.17 µM) | 0.25 (≈ 0.586 µM) | 0.25 (≈ 0.586 µM) | 1 (≈ 2.34 µM) | 4.6 (≈ 10.8 µM) | 200 (≈ 469 µM) | 200 (≈ 469 µM) | – | 200 (≈ 469 µM) | 45 (≈ 106 µM) | inactive | – | – | inactive | – | – |
| C/C=C(\C)c1cc(OC(=O)c2c(C)cc(O)cc2O)c(C)c(O)c1C(=O)O | 0.25 (≈ 0.671 µM) | 0.5 (≈ 1.34 µM) | 0.25 (≈ 0.671 µM) | 0.25 (≈ 0.671 µM) | 1 (≈ 2.69 µM) | 4.6 (≈ 12.4 µM) | 128 (≈ 344 µM) | 128 (≈ 344 µM) | – | 32 (≈ 85.9 µM) | 110 (≈ 295 µM) | inactive | – | – | inactive | – | – |
| C/C=C(\C)c1cc(O)c(C)c2c1Oc1cc(O)c(Cl)c(C)c1C(=O)O2 | – | 0.5 (≈ 1.39 µM) | 0.25 (≈ 0.693 µM) | 0.25 (≈ 0.693 µM) | 1 (≈ 2.77 µM) | 4.6 (≈ 12.7 µM) | 8 (≈ 22.2 µM) | 8 (≈ 22.2 µM) | 8 (≈ 22.2 µM) | 32 (≈ 88.7 µM) | 86 (≈ 238 µM) | – | – | – | – | – | 8 (≈ 22.2 µM) |
| C/C=C(\C)c1cc(O)c(C)c(OC(=O)c2c(/C(C)=C/C)cc(O)c(C)c2O)c1 [AGONODEPSIDE A] | 0.25 (≈ 0.654 µM) | 0.25 (≈ 0.654 µM) | – | 0.25 (≈ 0.654 µM) | – | – | – | 2 (≈ 5.23 µM) | – | – | – | – | – | – | – | – | – |
| C/C=C(\C)c1cc(O)c(C)c2c1Oc1cc(O)cc(C)c1C(=O)O2 | – | – | – | 0.25 (≈ 0.766 µM) | 1 (≈ 3.06 µM) | – | 128 (≈ 392 µM) | – | – | 200 (≈ 613 µM) | – | inactive | – | inactive | inactive | Non-Toxic | – |
| C/C=C(\C)c1cc(O)c(C)c2c1C(=O)Oc1c(C)c(O)c(C(=O)O)c(/C(C)=C/C)c1O2 | 0.25 (≈ 0.589 µM) | 0.5 (≈ 1.18 µM) | 0.25 (≈ 0.589 µM) | 0.25 (≈ 0.589 µM) | 1 (≈ 2.36 µM) | 4.6 (≈ 10.8 µM) | – | 64 (≈ 151 µM) | – | 64 (≈ 151 µM) | – | inactive | – | – | inactive | Non-Toxic | 200 (≈ 471 µM) |
| C/C=C(\C)c1cc(O)c(C)c(O)c1C(=O)Oc1cc(/C(C)=C/C)c(C(=O)O)c(O)c1C [AGONODEPSIDE B] | – | 0.5 (≈ 1.17 µM) | – | 0.5 (≈ 1.17 µM) | 0.5 (≈ 1.17 µM) | – | – | 16 (≈ 37.5 µM) | – | – | – | – | – | – | – | – | – |
| COC(=O)c1c(C)cc(O)cc1O [METHYL ORSELLINATE] | 0.25 (≈ 1.37 µM) | 0.5 (≈ 2.74 µM) | 0.25 (≈ 1.37 µM) | 0.25 (≈ 1.37 µM) | 1 (≈ 5.49 µM) | 4.6 (≈ 25.3 µM) | – | – | – | 200 (≈ 1100 µM) | – | inactive | inactive | inactive | inactive | Non-Toxic | – |
